According to patent US20260166162A1, “CARBON CHAIN SUBSTANCE FOR REGULATING TRANSMEMBRANE TRANSPORT AND FLUIDITY OF CELL MEMBRANES, AND PREPARATION AND USE THEREOF” (priority 2022, published 2026):

Experiments:
Assay type in all cases: cell-based
Epithelial cells = test: Interaction of GFP-labelled complexes with cell membrane of epithelial cells (Example II-52, Table II-30); settings: GFP-labelled complex, epithelial cells pretreated 4 hours, n=3
Method: The fatty acids were combined with water-soluble small molecules to form a complex, which were labeled with GFP fluorescence to detect cell membrane fluorescence. […] After the cells were stably adhered, the water-soluble fatty acid complexes in the following table were added to the cell culture medium. […] The medium with the drug was pipetted and replaced with normal DMEM medium. […] The green fluorescence intensity was analyzed by imageJ (see Table II-30, n=3).

293T cells = test: Cellular phagocytosis of DiD-loaded lipid vesicles (nano-drugs) by 293T cells (Example II-51, Table II-29); settings: 293T cells pretreated 4 h, DiD lipid vesicles 2 h, n=3, untreated control 226.46 ± 1.26
Hela cells = test: Cell membrane fluidity (Laurdan fluorescence recovery) in Hela cells

`Nc1ncnc2c1ncn2[C@@H]1O[C@H](COP(=O)(O)O)[C@@H](O)[C@H]1O.O=C(O)/C=C/C(=O)O` [Adenosine monophosphate-fumaric acid] was tested, and the Mean fluorescence intensity (Epithelial cells; 0 Hours after medium replaced) was 125.1 ± 7.6, the Mean fluorescence intensity (Epithelial cells; 2 Hours after medium replaced) was 120.5 ± 7.4 and the Mean fluorescence intensity (Epithelial cells; 4 Hours after medium replaced) was 113.3 ± 4.6. For the same compound, the Mean fluorescence intensity (Epithelial cells; 8 Hours after medium replaced) was 50.0 ± 2.4, the Mean fluorescence intensity (Epithelial cells; 12 Hours after medium replaced) was 35.8 ± 4.6 and the Mean fluorescence intensity (Epithelial cells; 24 Hours after medium replaced) was 31.3 ± 4.4.
`C/C=C/C(=O)O` [Crotonic acid] gave a Fluorescence intensity (293T cells; 2 nM) of 157.30 ± 20.43, a Fluorescence intensity (293T cells; 5 nM) of 159.29 ± 0.43 and a Fluorescence intensity (293T cells; 10 nM) of 94.34 ± 0.43. It also gave a Fluorescence intensity (293T cells; 50 nM) of 51.34 ± 0.43, a Fluorescence intensity (293T cells; 100 nM) of 59.65 ± 1.57 and a Fluorescence intensity (293T cells; 1 uM) of 458.20 ± 20.41. The Fluorescence intensity (293T cells; 10 uM) was 326.69 ± 20.40, the Fluorescence intensity (293T cells; 50 uM) was 200.73 ± 10.31 and the Fluorescence intensity (293T cells; 100 uM) was 218.13 ± 8.22.
With `CCCCCCCC/C=C\CCCCCCCC(=O)O.OCCO` [Ethylene glycol-oleic acid] the Fluorescence intensity (293T cells; 2 nM) was 182.21 ± 18.23, the Fluorescence intensity (293T cells; 5 nM) was 121.07 ± 11.26 and the Fluorescence intensity (293T cells; 10 nM) was 69.12 ± 4.26. For the same compound, the Fluorescence intensity (293T cells; 50 nM) was 64.90 ± 1.56, the Fluorescence intensity (293T cells; 100 nM) was 44.23 ± 4.26 and the Fluorescence intensity (293T cells; 1 uM) was 368.97 ± 18.56. The Fluorescence intensity (293T cells; 50 uM) was 69.34 ± 5.32 and the Fluorescence intensity (293T cells; 100 uM) was 58.72 ± 8.75.
For `CCCCCCCCCCCCCCCC(=O)OCC1OC(O)C(O)C(O)C1O` (centres unmarked) [Glucose-C16], the Fluorescence intensity (293T cells; 2 nM) was 134.65 ± 15.22, the Fluorescence intensity (293T cells; 5 nM) was 114.00 ± 11.02 and the Fluorescence intensity (293T cells; 10 nM) was 94.34 ± 4.57. For the same compound, the Fluorescence intensity (293T cells; 50 nM) was 96.63 ± 6.54, the Fluorescence intensity (293T cells; 100 nM) was 172.88 ± 26.33 and the Fluorescence intensity (293T cells; 1 uM) was 198.54 ± 8.55. For the same compound, the Fluorescence intensity (293T cells; 10 uM) was 170.16 ± 20.33, the Fluorescence intensity (293T cells; 50 uM) was 110.15 ± 10.22 and the Fluorescence intensity (293T cells; 100 uM) was 104.90 ± 4.91.
For `CCCCCCC=CCCCCCCCC(=O)OCC1OC(O)C(O)C(O)C1O` (centres unmarked) [Glucose-c-9-hexadecenoic acid], the Mean fluorescence intensity (Epithelial cells; 0 Hours after medium replaced) was 126.3 ± 2.5, the Mean fluorescence intensity (Epithelial cells; 2 Hours after medium replaced) was 113.5 ± 8.2 and the Mean fluorescence intensity (Epithelial cells; 4 Hours after medium replaced) was 105.5 ± 6.8. For the same compound, the Mean fluorescence intensity (Epithelial cells; 8 Hours after medium replaced) was 87.5 ± 6.8, the Mean fluorescence intensity (Epithelial cells; 12 Hours after medium replaced) was 64.3 ± 5.1 and the Mean fluorescence intensity (Epithelial cells; 24 Hours after medium replaced) was 43.5 ± 5.0.
`CCC=CCC=CCC=CCCCCCCCC(=O)OCC1OC(O)C(O)C(O)C1O` (centres unmarked) [Glucose-linolenic acid] was tested, and the “Fluorescence recovery rate %” value (Hela cells; 2 nM, 20 s) was 63.78%, the “Fluorescence recovery rate %” value (Hela cells; 2 nM, 40 s) was 64.18% and the “Fluorescence recovery rate %” value (Hela cells; 2 nM, 60 s) was 65.22%. For the same compound, the “Fluorescence recovery rate %” value (Hela cells; 2 nM, 80 s) was 65.16%, the “Fluorescence recovery rate %” value (Hela cells; 5 nM, 20 s) was 64.35% and the “Fluorescence recovery rate %” value (Hela cells; 5 nM, 40 s) was 64.83%. The “Fluorescence recovery rate %” value (Hela cells; 5 nM, 60 s) was 65.17%, the “Fluorescence recovery rate %” value (Hela cells; 5 nM, 80 s) was 66.59% and the “Fluorescence recovery rate %” value (Hela cells; 10 nM, 20 s) was 64.76%. For the same compound, the “Fluorescence recovery rate %” value (Hela cells; 10 nM, 40 s) was 64.87%, the “Fluorescence recovery rate %” value (Hela cells; 10 nM, 60 s) was 65.11% and the “Fluorescence recovery rate %” value (Hela cells; 10 nM, 80 s) was 66.83%. For the same compound, the “Fluorescence recovery rate %” value (Hela cells; 50 nM, 20 s) was 63.24%, the “Fluorescence recovery rate %” value (Hela cells; 50 nM, 40 s) was 64.10% and the “Fluorescence recovery rate %” value (Hela cells; 50 nM, 60 s) was 64.54%. The “Fluorescence recovery rate %” value (Hela cells; 50 nM, 80 s) was 65.23%, the “Fluorescence recovery rate %” value (Hela cells; 50 μM, 20 s) was 63.11% and the “Fluorescence recovery rate %” value (Hela cells; 50 μM, 40 s) was 70.49%. For the same compound, the “Fluorescence recovery rate %” value (Hela cells; 50 μM, 60 s) was 74.88%, the “Fluorescence recovery rate %” value (Hela cells; 50 μM, 80 s) was 79.24% and the “Fluorescence recovery rate %” value (Hela cells; 100 μM, 20 s) was 65.93%. The “Fluorescence recovery rate %” value (Hela cells; 100 μM, 40 s) was 69.87%, the “Fluorescence recovery rate %” value (Hela cells; 100 μM, 60 s) was 75.03% and the “Fluorescence recovery rate %” value (Hela cells; 100 μM, 80 s) was 80.83%.
With `CCCCCCCCC/C=C/C(=O)OCC1OC(O)C(O)C(O)C1O` (centres unmarked) [Glucose-t-2-dodecenoic acid] the Mean fluorescence intensity (Epithelial cells; 0 Hours after medium replaced) was 129.3 ± 0.6, the Mean fluorescence intensity (Epithelial cells; 2 Hours after medium replaced) was 122.0 ± 6.6 and the Mean fluorescence intensity (Epithelial cells; 4 Hours after medium replaced) was 109.6 ± 5.6. The Mean fluorescence intensity (Epithelial cells; 8 Hours after medium replaced) was 63.4 ± 6.0, the Mean fluorescence intensity (Epithelial cells; 12 Hours after medium replaced) was 45.7 ± 4.6 and the Mean fluorescence intensity (Epithelial cells; 24 Hours after medium replaced) was 38.5 ± 8.2.
